Assay results from patent US20110178053A1, “AZACARBOLINE DERIVATIVES, PREPARATION METHOD THEREOF AND THERAPEUTIC USE OF SAME” (SANOFI-AVENTIS, priority 2008, published 2011).

What was measured:
Assay type in all cases: biochemical
Pim-1 = target: T1, Pim-1 (Homo sapiens, UniProt P11309); test: TR-FRET assay, Pim-1 kinase (phosphorylation of Bad Ser112); settings: TR-FRET; ATP 40 μM; read-out: IC50 Pim1
T1 construct: His6-labelled recombinant full-length human Pim-1, Pim-2 or Pim-3 protein; His6; made in house
T1 sequence (P11309 whole entry): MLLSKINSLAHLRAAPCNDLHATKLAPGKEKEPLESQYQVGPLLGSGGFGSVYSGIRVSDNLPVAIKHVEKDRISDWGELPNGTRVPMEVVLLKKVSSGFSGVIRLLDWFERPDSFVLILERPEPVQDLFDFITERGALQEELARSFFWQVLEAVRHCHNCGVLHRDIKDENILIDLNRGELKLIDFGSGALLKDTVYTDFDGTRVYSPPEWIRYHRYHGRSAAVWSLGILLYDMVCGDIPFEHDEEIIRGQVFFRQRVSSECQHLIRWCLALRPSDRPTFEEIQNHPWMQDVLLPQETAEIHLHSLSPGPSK
Description: (§1) In order to determine the inhibition of activation of Pim kinases, the compounds of the invention are tested in accordance with a routinely used in vitro TR-FRET assay (Time-Resolved Fluorescence Resonance Energy Transfer). […] For the assay, the following reagents are used:
(§2) Pim kinase—His6-labelled recombinant full-length human Pim-1, Pim-2 or Pim-3 protein (prepared according to J. Mol. Biol. (2005) 348, 183-193); Bad—His6-labelled recombinant full-length human Bad protein (prepared according to J. Mol. Biol. (2005) 348, 183-193); α-His6-APC—murine monoclonal antibody conjugated to allophycocyanin SureLight™ directed against the His6 label (Perkin-Elmer, No. AD0059H, Waltham, Mass., United States); • β-P˜Bad-Eu—murine monoclonal antibody (Cell Signaling Technology #9296B, Danvers, Mass., United States) directed against phosphoBad (Ser112) (7E11) custom-labelled by Perkin-Elmer with the reagent LANCE™ Eu-W1024.
(§3) The assay is based on Perkin-Elmer's LANCE™ technology: the Eu-labelled antibody binds to phospho-Ser112 and generates a TR-FRET signal by interaction with the APC-labelled antibody directed against His6, bound to the His6 label of Bad. The TR-FRET signal is detected using a SpectraMax M5 plate reader (Molecular Devices) with the following settings: λex=340 nm, λem1=615 nm, λem2=665 nm. The ratio of the fluorescence signal at 665 nm to the fluorescence signal at 615 nm is used as the signal reading for the IC50 (calculation is based on the 4-parameter logistic model). The assay is performed in a 384-well format; the liquid manipulations are performed using a Beckman 3000 liquid manipulations station. The test compounds are tested at 10 concentration points in duplicate; the highest compound concentration is typically equal to 30 μM. The ATP concentration is equal to 40 μM, which is equivalent to the apparent KM value.

Pim-2 = target: T2, Pim-2 (Homo sapiens, UniProt Q9P1W9); test: TR-FRET assay, Pim-2 kinase (phosphorylation of Bad Ser112); settings: TR-FRET; ATP 40 μM; read-out: IC50 Pim2
T2 construct: His6-labelled recombinant full-length human Pim-1, Pim-2 or Pim-3 protein; His6; made in house
T2 sequence (Q9P1W9 whole entry): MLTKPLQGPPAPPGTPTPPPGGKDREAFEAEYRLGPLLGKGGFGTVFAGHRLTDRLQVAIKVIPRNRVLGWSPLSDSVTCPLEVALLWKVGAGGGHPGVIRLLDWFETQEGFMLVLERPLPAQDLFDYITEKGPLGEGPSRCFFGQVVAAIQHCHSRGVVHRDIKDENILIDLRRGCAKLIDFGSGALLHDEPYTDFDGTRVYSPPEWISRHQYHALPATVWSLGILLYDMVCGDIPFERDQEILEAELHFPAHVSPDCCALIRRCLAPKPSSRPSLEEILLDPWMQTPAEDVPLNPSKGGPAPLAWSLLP
Description: as §1, §2, §3

Pim-3 = target: T3, Pim-3 (Homo sapiens, UniProt Q86V86); test: TR-FRET assay, Pim-3 kinase (phosphorylation of Bad Ser112); settings: TR-FRET; ATP 40 μM; read-out: IC50 Pim3
T3 construct: His6-labelled recombinant full-length human Pim-1, Pim-2 or Pim-3 protein; His6; made in house
Description: as §1, §2, §3

SMILES | IC50 (Pim-1) [nM] | IC50 (Pim-2) [nM] | IC50 (Pim-3) [nM]
CC(C)(O)C#Cc1c(F)cnc2[nH]c3cnc(-c4cccnc4)cc3c12 [Example 91, 4-[3-fluoro-6-(pyrid-3-yl)-9H-pyrrolo[2,3-b:5,4-c′]dipyrid-4-yl]-2-methylbut-3-yn-2-ol] | 1 to 100 | 1000 to 5000 | 1 to 100
COc1c(F)cnc2[nH]c3cnc(-c4cccnc4)cc3c12 [Example 105, 3-fluoro-4-methoxy-6-(pyrid-3-yl)-9H-pyrrolo[2,3-b:5,4-c′]dipyridine] | 1 to 100 | > 5000 | 100 to 1000
CN1CCN(c2cnc3[nH]c4cnc(-c5cccnc5)cc4c3c2)CC1 [Example 106, 3-(4-methylpiperazin-1-yl)-6-(pyrid-3-yl)-9H-pyrrolo[2,3-b:5,4-c′]dipyridine] | 1 to 100 | > 5000 | 1 to 100
c1cncc(-c2cc3c(cn2)[nH]c2ncc(N4CCNCC4)cc23)c1 [Example 108, 3-(piperazin-1-yl)-6-(pyrid-3-yl)-9H-pyrrolo[2,3-b:5,4-c′]-dipyridine] | 1 to 100 | > 5000 | 1 to 100
Nc1cnc2[nH]c3cnc(-c4cccnc4)cc3c2c1 [Example 109, 6-(pyrid-3-yl)-9H-pyrrolo[2,3-b:5,4-c′]dipyrid-3-amine] | 1 to 100 | > 5000 | 100 to 1000
FC(F)(F)COc1cnc2[nH]c3cnc(-c4cccnc4)cc3c2c1 [Example 111, 6-(pyrid-3-yl)-3-(2,2,2-trifluoroethoxy)-9H-pyrrolo[2,3-b:5,4-c′]dipyridine] | 1 to 100 | 1000 to 5000 | 100 to 1000
Ic1cnc2[nH]c3cnc(-c4cccnc4)cc3c2c1 [Example 114, 3-iodo-6-(pyrid-3-yl)-9H-pyrrolo[2,3-b:5,4-c′]dipyridine] | 100 to 1000 | 1000 to 5000 | 100 to 1000
CC(C)Cn1cc(-c2cnc3[nH]c4cnc(-c5cccnc5)cc4c3c2)cn1 [Example 117, 3-[1-(2-methyl-propyl)-1H-pyrazol-4-yl]-6-(pyrid-3-yl)-9H-pyrrolo[2,3-b:5,4-c′]dipyridine] | 1 to 100 | 1000 to 5000 | 1 to 100
c1cncc(-c2cc3c(cn2)[nH]c2ncc(-c4cccc(N5CCNCC5)c4)cc23)c1 [Example 132, 3-[3-(piperazin-1-yl)phenyl]-6-(pyrid-3-yl)-9H-pyrrolo[2,3-b:5,4-c′]dipyridine] | 1 to 100 | 100 to 1000 | 1 to 100
CN(C)CC(=O)N1CCN(c2cccc(-c3cnc4[nH]c5cnc(-c6cccnc6)cc5c4c3)c2)CC1 [Example 134, 2-(dimethylamino)-1-(4-{3-[6-(pyrid-3-yl)-9H-pyrrolo[2,3-b:5,4-c′]dipyrid-3-yl]-phenyl}piperazin-1-yl)ethanone] | 1 to 100 | > 5000 | 1 to 100
CN(C)CC(=O)N1CCN(c2ccc(-c3cnc4[nH]c5cnc(-c6cccnc6)cc5c4c3)cc2)CC1 [Example 135, 2-(dimethylamino)-1-(4-{4-[6-(pyrid-3-yl)-9H-pyrrolo[2,3-b:5,4-c′]dipyrid-3-yl]-phenyl}piperazin-1-yl)ethanone] | 1 to 100 | 100 to 1000 | 1 to 100
CC(=O)N1CCN(c2cccc(-c3cnc4[nH]c5cnc(-c6cccnc6)cc5c4c3)c2)CC1 [Example 136, 1-(4-{3-[6-(pyrid-3-yl)-9H-pyrrolo[2,3-b:5,4-c′]dipyrid-3-yl]phenyl}piperazin-1-yl)-ethanone] | 1 to 100 | > 5000 | 1 to 100
CC(=O)N1CCN(c2ccc(-c3cnc4[nH]c5cnc(-c6cccnc6)cc5c4c3)cc2)CC1 [Example 137, 1-(4-{4-[6-(pyrid-3-yl)-9H-pyrrolo[2,3-b:5,4-c′]dipyrid-3-yl]phenyl}piperazin-1-yl)-ethanone] | 1 to 100 | 100 to 1000 | 1 to 100
CN1CCN(c2ccc(-c3cnc4[nH]c5cnc(-c6cccnc6)cc5c4c3)cc2)CC1 [Example 138, 3-[4-(4-methylpiperazin-1-yl)phenyl]-6-(pyrid-3-yl)-9H-pyrrolo[2,3-b:5,4-c′]dipyridine] | 1 to 100 | 100 to 1000 | 1 to 100
CN1CCN(c2cccc(-c3cnc4[nH]c5cnc(-c6cccnc6)cc5c4c3)c2)CC1 [Example 139, 3-[3-(4-methylpiperazin-1-yl)phenyl]-6-(pyrid-3-yl)-9H-pyrrolo[2,3-b:5,4-c′]dipyridine] | 1 to 100 | 1000 to 5000 | 1 to 100
c1cncc(-c2cc3c(cn2)[nH]c2ncc(-c4ccc(N5CCN(C6CC6)CC5)cc4)cc23)c1 [Example 141, 3-[4-(4-cyclopropylpiperazin-1-yl)phenyl]-6-(pyrid-3-yl)-9H-pyrrolo[2,3-b:5,4-c′]-dipyridine] | 1 to 100 | 1000 to 5000 | 1 to 100
c1cncc(-c2cc3c(cn2)[nH]c2ncc(-c4cccc(N5CCN(C6CC6)CC5)c4)cc23)c1 [Example 142, 3-[3-(4-cyclopropylpiperazin-1-yl)phenyl]-6-(pyrid-3-yl)-9H-pyrrolo[2,3-b:5,4-c′]-dipyridine] | 1 to 100 | > 5000 | 1 to 100
c1cncc(-c2cc3c(cn2)[nH]c2ncc(-c4ccnc(N5CCNCC5)c4)cc23)c1 [Example 144, 3-[2-(piperazin-1-yl)pyrid-4-yl]-6-(pyrid-3-yl)-9H-pyrrolo[2,3-b:5,4-c′]dipyridine] | 1 to 100 | > 5000 | 1 to 100
CN(C)CCCOc1ccc(-c2cnc3[nH]c4cnc(-c5cccnc5)cc4c3c2)cn1 [Example 145, N,N-dimethyl-3-({5-[6-(pyrid-3-yl)-9H-pyrrolo[2,3-b:5,4-c′]dipyrid-3-yl]pyrid-2-yl}-oxy)propan-1-amine] | 1 to 100 | 100 to 1000 | 1 to 100
CN(C)CCCOc1ccc(-c2cnc3[nH]c4cnc(-c5cccnc5)cc4c3c2)cc1 [Example 146, N,N-dimethyl-3-{4-[6-(pyrid-3-yl)-9H-pyrrolo[2,3-b:5,4-c′]dipyrid-3-yl]phenoxy}-propan-1-amine] | 1 to 100 | 100 to 1000 | 1 to 100
c1cncc(-c2cc3c(cn2)[nH]c2ncc(-c4ccc(OCCCN5CCCCC5)cc4)cc23)c1 [Example 147, 3-{4-[3-(piperid-1-yl)propoxy]phenyl}-6-(pyrid-3-yl)-9H-pyrrolo[2,3-b:5,4-c′]-dipyridine] | 1 to 100 | 100 to 1000 | 1 to 100
c1cncc(-c2cc3c(cn2)[nH]c2ncc(-c4ccc(OCCN5CCOCC5)cc4)cc23)c1 [Example 148, 3-{4-[2-(morpholin-4-yl)ethoxy]phenyl}-6-(pyrid-3-yl)-9H-pyrrolo[2,3-b:5,4-c′]-dipyridine] | 1 to 100 | 100 to 1000 | 1 to 100
c1cncc(-c2cc3c(cn2)[nH]c2ncc(-c4ccc(OCCCN5CCOCC5)cc4)cc23)c1 [Example 149, 3-{4-[3-(morpholin-4-yl)propoxy]phenyl}-6-(pyrid-3-yl)-9H-pyrrolo[2,3-b:5,4-c′]-dipyridine] | 1 to 100 | 100 to 1000 | 1 to 100
c1cncc(-c2cc3c(cn2)[nH]c2ncc(-c4ccc(OCCn5ccnc5)cc4)cc23)c1 [Example 150, 3-{4-[2-(1H-imidazol-1-yl)ethoxy]phenyl}-6-(pyrid-3-yl)-9H-pyrrolo[2,3-b:5,4-c′]-dipyridine] | 1 to 100 | 100 to 1000 | 1 to 100
Oc1ccc(-c2cnc3[nH]c4cnc(-c5cccnc5)cc4c3c2)cc1 [Example 151, 4-[6-(pyrid-3-yl)-9H-pyrrolo[2,3-b:5,4-c′]dipyrid-3-yl]phenol] | 1 to 100 | 100 to 1000 | 1 to 100
CS(=O)(=O)N1CCN(CCCOc2ccc(-c3cnc4[nH]c5cnc(-c6cccnc6)cc5c4c3)cc2)CC1 [Example 152, 3-(4-{3-[4-(methylsulfonyl)piperazin-1-yl]propoxy}phenyl)-6-(pyrid-3-yl)-9H-pyrrolo-[2,3-b:5,4-c′]dipyridine] | 1 to 100 | 100 to 1000 | 1 to 100
CCN(CC)CCOc1cccc(-c2cnc3[nH]c4cnc(-c5cccnc5)cc4c3c2)c1 [Example 153, N,N-diethyl-2-{3-[6-(pyrid-3-yl)-9H-pyrrolo[2,3-b:5,4-c′]dipyrid-3-yl]phenoxy}ethan-amine] | 1 to 100 | 1000 to 5000 | 1 to 100
